PubChem BioAssay (NCI)
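Five concentrations, 48 hours, 96-well plates. TGI: total growth inhibition.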

Assays:
Assay in all cases: NCI tumour cell line growth inhibition, 48 h
[1] = system: 786-0 renal
[2] = system: A498 renal
[3] = system: A549 NSCLC
[4] = system: ACHN renal
[5] = system: CAKI-1 renal
[6] = system: CCRF-CEM leukemia
[7] = system: COLO 205 colon
[8] = system: DLD-1 colon
[9] = system: DMS 114 small cell lung
[10] = system: DMS 273 small cell lung
[11] = system: EKVX NSCLC
[12] = system: HCC-2998 colon
[13] = system: HCT-116 colon
[14] = system: HCT-15 colon
[15] = system: HL-60(TB) leukemia
[16] = system: HOP-62 NSCLC
[17] = system: HOP-92 NSCLC
[18] = system: HT29 colon
[19] = system: IGROV1 ovarian
[20] = system: K-562 leukemia
[21] = system: KM12 colon
[22] = system: KM20L2 colon
[23] = system: LOX IMVI melanoma
[24] = system: LXFL 529 NSCLC
[25] = system: M14 melanoma
[26] = system: M19-MEL melanoma
[27] = system: MALME-3M melanoma
[28] = system: MOLT-4 leukemia
[29] = system: NCI-H23 lung
[30] = system: NCI-H522 lung
[31] = system: OVCAR-3 ovarian
[32] = system: OVCAR-4 ovarian
[33] = system: OVCAR-8 ovarian
[34] = system: RPMI-8226 leukemia
[35] = system: RXF 393 renal
[36] = system: SF-268 CNS
[37] = system: SF-295 CNS
[38] = system: SF-539 CNS
[39] = system: SK-MEL-2 melanoma
[40] = system: SK-MEL-28 melanoma
[41] = system: SN12C renal
[42] = system: SNB-75 CNS
[43] = system: SR leukemia
[44] = system: SW-620 colon
[45] = system: TK-10 renal
[46] = system: U251 CNS
[47] = system: UACC-257 melanoma
[48] = system: UACC-62 melanoma
[49] = system: XF 498 CNS
[50] = system: OVCAR-5 ovarian
[51] = system: SK-MEL-5 melanoma
[52] = system: SK-OV-3 ovarian
[53] = system: SNB-19 CNS
[54] = system: SNB-78 CNS
[55] = system: UO-31 renal

For CC(C)CCCC(C)C1CCC2C3CC([N+](=O)[O-])=C4CC(O)CCC4(C)C3CCC12C (stereo not drawn), the TGI [1] was 33 µM, the TGI [2] was 40.6 µM and the TGI [3] was 47.1 µM. It also gave a TGI [4] of over 100 µM, a TGI [5] of 66 µM and a TGI [6] of 42.9 µM. For the same molecule, the TGI [7] was 45.7 µM, the TGI [8] was 35.9 µM and the TGI [9] was 45.7 µM. For the same molecule, the TGI [10] was 27.2 µM, the TGI [11] was 57.2 µM and the TGI [12] was 37.2 µM. The TGI [13] was 28.9 µM, the TGI [14] was 33.6 µM and the TGI [15] was 60.6 µM. The TGI [16] was 42.3 µM, the TGI [17] was 46.6 µM and the TGI [18] was 55.5 µM. It also gave a TGI [19] of 50.1 µM, a TGI [20] of 36.8 µM and a TGI [21] of 37 µM. For the same molecule, the TGI [22] was 34.7 µM, the TGI [23] was 36.6 µM and the TGI [24] was 32.9 µM. For the same molecule, the TGI [25] was 28.8 µM, the TGI [26] was 73.3 µM and the TGI [27] was 39.2 µM. The TGI [28] was 88.2 µM, the TGI [29] was 48.6 µM and the TGI [30] was 33.6 µM. It also gave a TGI [31] of 49.4 µM, a TGI [32] of 43 µM and a TGI [33] of 47.4 µM. It also gave a TGI [34] of 46.9 µM, a TGI [35] of 50.9 µM and a TGI [36] of 62.9 µM. The TGI [37] was 30 µM, the TGI [38] was 28.9 µM and the TGI [39] was 29 µM. For the same molecule, the TGI [40] was 35.2 µM, the TGI [41] was 32.1 µM and the TGI [42] was 41.5 µM. It also gave a TGI [43] of 34.1 µM, a TGI [44] of 59.1 µM and a TGI [45] of 39.6 µM. It also gave a TGI [46] of 30.4 µM, a TGI [47] of 37.5 µM and a TGI [48] of 40.3 µM. The TGI [49] was 37.1 µM.
With CC1=N/C(=C\c2ccc(C)cc2)C(=O)O1 the TGI [5] was over 100 µM, the TGI [6] was over 100 µM and the TGI [7] was over 100 µM. For the same molecule, the TGI [8] was over 100 µM, the TGI [12] was over 100 µM and the TGI [14] was over 100 µM. For the same molecule, the TGI [17] was over 100 µM, the TGI [18] was over 100 µM and the TGI [19] was over 100 µM. The TGI [20] was over 100 µM, the TGI [21] was over 100 µM and the TGI [22] was over 100 µM. It also gave a TGI [24] of over 100 µM, a TGI [25] of over 100 µM and a TGI [26] of over 100 µM. It also gave a TGI [27] of over 100 µM, a TGI [28] of over 100 µM and a TGI [29] of over 100 µM. The TGI [30] was over 100 µM, the TGI [31] was over 100 µM and the TGI [32] was over 100 µM. For the same molecule, the TGI [50] was over 100 µM, the TGI [33] was over 100 µM and the TGI [35] was over 100 µM. It also gave a TGI [37] of over 100 µM, a TGI [39] of over 100 µM and a TGI [40] of over 100 µM. It also gave a TGI [51] of over 100 µM, a TGI [52] of over 100 µM and a TGI [41] of over 100 µM. The TGI [53] was over 100 µM, the TGI [54] was over 100 µM and the TGI [43] was over 100 µM. It also gave a TGI [44] of over 100 µM, a TGI [45] of over 100 µM and a TGI [46] of over 100 µM. It also gave a TGI [48] of over 100 µM, a TGI [55] of over 100 µM and a TGI [49] of over 100 µM.
